This note sets out measurements from patent US8513010B2, “Dendritic cells pulsed with a bisphosphonate” (Medinet Co. Ltd., priority 2004, dated 2013).

Each structure is given as a SMILES string.

For test [1], the system named is γδ T-cells. The experiment in a line: IFN-γ ELISpot confirming activation of γδ T-cells (Example 5). The test is classed as cell-based, human. The settings on record: 30,000 γδ T-cells + 15,000 immature or mature dendritic cells + Aredia 10 μM, versus γδ T-cells alone, γδ T-cells with Aredia only, FIG. 2. As to the method: In each well of a MultiScreen plate (Millipore), 70% ethanol was added and removed within two minutes.
An anti-interferon(IFN)-γ antibody for coating (clone: 1-D1K, MABTECH ELISpot for Human Interferon-γ kit) was diluted with PBS to 15 μg/ml, and added 100 μl/well.
The γδ T-cells obtained in Example 4 were collected by centrifugation and washed twice with AIM-V.
To 30,000 of the γδ T-cells collected, and 15,000 of the immature or mature dendritic cells obtained in Example 1 Aredia, prepared to have a final concentration of 10 μM, was added, and precultivated in a 15 ml tube (Falcon) under the conditions of 37° C. and 5% CO2 for two hours. At the same time, precultivation of γδ T-cells by themselves, precultivation of γδ T-cells with only Aredia added thereto, and precultivation of the respective dendritic cells by themselves were also conducted. Each culture volume was adjusted to 300 μl.
The plate was washed with PBS after blocking, and each group of cells which completed precultivation under the respective conditions was disseminated in three wells, 100 μl/well.
They were cultured overnight under the conditions of 37° C. and 5% CO2. […]
After confirming that the membrane on the plate was dry, the number of spots was measured using an ELISpot reader (AID Autoimmune Diagnostika GmbH), and the data was analyzed using the AID software version 3.1 (AID).

In test [2] the test system is γδ T-cells. The test can be described thus: Culture of peripheral blood mononuclear cells with Aredia and IL-2, phenotype by flow cytometer (Example 4). The test is classed as cell-based, human. As to conditions: peripheral blood monocyte suspension, Aredia 10 μM, IL-2 1,000 U/ml, cultivated 14 days. On the procedure:
From a healthy donor 30 ml of peripheral blood was collected, and peripheral blood mononuclear cells were collected using a density gradient medium for blood cell separation. The cells collected were washed several times to remove platelets and the like.
The peripheral blood monocytes obtained were suspended in AIM-V medium (10% FCS), and Aredia was added so that the concentration in the peripheral blood monocyte suspension was 10 μM.
This was cultivated for 14 days. During this period, AIM-V (10% FCS) medium and IL-2, at a final concentration of 1,000 U/ml, were added in accordance with the cell proliferation.
Using a flow cytometer, the phenotype of the cells cultured was confirmed to be a cell subset containing at least 95% of γδ T-cells.
A general note: Flow cytometry measures light scatter and fluorescence of single cells or particles in a stream.

With `NCCC(O)(P(=O)([O-])O)P(=O)([O-])O.O.O.O.O.O.[Na+].[Na+]` [Aredia, pamidronate disodium pentahydrate], in the test on γδ T-cells [1], the “number of spots (IFN-γ ELISpot)” value was “increased only when the dendritic cells and Aredia were added simultaneously to the γδ T-cells”; the “spot intensity (IFN-γ ELISpot)” value is “increased only when the dendritic cells and Aredia were added simultaneously to the γδ T-cells”. Also, the “γδ T-cells in the cultured cell subset” value with γδ T-cells [2] is “at least 95%”.
